The record followed here is US11202776B2, “Treatment of gastroparesis with triazaspiro[4.5]decanone” (Millennium Pharmaceuticals, Inc., priority 2017, dated 2021).

A short description of data set [1]: Phase I single-ascending dose (SAD) pharmacokinetics incl. food effect, plasma concentration of the Compound. The data set is classed as in vivo, human. To be noted: single PO dose, over 24 h. The protocol:
(§1) A phase I randomized, double-blind, placebo-controlled, adaptive-design, single-ascending dose (SAD) and multiple-ascending dose (MAD) study was conducted in healthy human subjects to evaluate the safety, tolerability, pharmacokinetics (PK), pharmacodynamics (PD), food effect, and optimal oral dose of 3-((1-cyclohexyl-4-oxo-8-(4-oxo-4-phenylbutyl)-1,3,8-triazaspiro[4.5]decan-3-yl)methyl)benzoic acid maleate (hereinafter, “the Maleate Salt”). The SAD phase included an arm to evaluate food effect on the PK of the Maleate Salt. The SAD phase also evaluated the effect of the Maleate Salt on ECG parameters, including an assessment of QT-interval changes using exposure-response analysis.
(§2) The Maleate Salt was formulated in the study as immediate-release, hard gelatin capsules for oral administration. Each capsule contained 5 mg or 25 mg of the Maleate Salt, as well as microcrystalline cellulose NF (AVICEL® PH-102), sodium starch glycolate NF (EXPLOTAB®), and magnesium stearate NF, all filled into a size 3 hard gelatin capsule. A matching placebo containing the same amount of microcrystalline cellulose NF in place of the Maleate Salt was used in the study. The Maleate Salt capsules and matching placebo capsules were packaged in high-density polyethylene (HDPE) bottles with polypropylene caps and stored at controlled conditions per the USP.
(§3) A total of 54 subjects received at least 1 dose of the Maleate Salt, ranging from 5 mg to the maximum single PO dose of 300 mg. Six subjects received a maximum single PO dose of 300 mg and 5 subjects received a total of 900 mg of the Maleate Salt over 5-day period (100 mg BID for 4 days with single 100 mg on Day 5).
The SAD phase had 7 cohorts dosed at 5 mg (cohort 1), 10 mg (cohort 2), 25 mg (cohort 3), 50 mg (cohort 4), 100 mg (cohort 5), 200 mg (cohort 6), and 300 mg (cohort 7) of the Maleate Salt. In each cohort, there were 6 active- and 2 placebo-treated subjects. Subjects were administered the Maleate Salt in the fasting state with 1 exception: subjects in the 25 mg cohort (cohort 3) received the Maleate Salt while fasting and again after a high-fat breakfast to determine food effect on PK.
Mean plasma concentration-time profiles for 3-((1-cyclohexyl-4-oxo-8-(4-oxo-4-phenylbutyl)-1,3,8-triazaspiro[4.5]decan-3-yl)methyl)benzoic acid (hereinafter, “the Compound”) following a single PO dose of the Maleate Salt are shown in FIG. 1.
In evaluating food effect on the PK of the Maleate Salt, subjects on Day 1 in cohort 3 were administered a single dose of the Maleate Salt at 25 mg or placebo in the fasted state. On Day 3, the same subjects received an identical dose 30 minutes after consumption of a standardized, high-fat, high-calorie breakfast.

Data set [2] is described as follows: Phase I multiple-ascending dose (MAD) pharmacokinetics, BID Days 1-4 and single morning dose Day 5. It counts as in vivo, human. To be noted: MAD phase, 50 or 100 mg BID. Here is the method: as §1, §2, §3
The MAD phase had 2 cohorts dosed at 50 and 100 mg of the Maleate Salt. In each cohort, there were 6 active- and 2 placebo-treated subjects. The Maleate Salt was administered to fasting subjects BID (morning and evening) on Days 1 through 4 and as a single morning dose on Day 5.
On Day 1, mean T1/2 was approximately 2 h for both 50 and 100 mg BID doses. On Day 5, mean T1/2 was 11.0 and 6.2 h following 50 and 100 mg BID doses, respectively. For T1/2 determination, the plasma samples for Day 1 were only collected to 12 h, whereas the plasma samples for Day 5 were collected to 24 h.

`O=C(O)c1cccc(CN2CN(C3CCCCC3)C3(CCN(CCCC(=O)c4ccccc4)CC3)C2=O)c1` [Compound 1, 3-((1-cyclohexyl-4-oxo-8-(4-oxo-4-phenylbutyl)-1,3,8-triazaspiro[4.5]decan-3-yl)methyl)benzoic acid]: the Plasma concentration-time profile entry in data set [1] was “rapid absorption and rapid elimination”; in data set [2], “rapid absorption and rapid elimination”.
